Here are results for 24 compounds from ChEMBL document CHEMBL1201862, “PubChem BioAssay data set” (2004).

Test systems include DLD-1; DMS-114; DMS-273; KM-20L2; LXFL 529; XF498; HOP-18; SNB-78; RXF 631.
Holding throughout (experiment): inhibition of tumour cell growth, NCI panel, 48 h

SMILES strings stand for the structures.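 Compound exposure: 48 hours, 5 concentrations, 96-well plates. GI50 is the concentration that inhibits growth by half.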 The source made the active and inactive calls. Cut-off read from the data, not from the text of the source: active = GI50 up to about 1.1 µM and inactive = higher.

As to `CCC(=O)CCC1=Nc2nnc(CCCCc3nnc4n3C(=O)C(CCC(=O)CC)=N4)n2C1=O`, the GI50 with DLD-1, in the assay with DMS-114, in the assay with DMS-273, in the assay with KM-20L2, with LXFL 529 and in the assay with XF498 was > 100 µM (inactive) in each case.
Consider `Cc1ccccc1C(=O)Oc1ccc(OCc2ccccc2)cc1`, for which the GI50 in the assay on DLD-1 was > 100 µM (inactive); with DMS-114, 28.9 µM (inactive); with DMS-273, > 100 µM (inactive); with HOP-18, > 100 µM (inactive); in the assay with KM-20L2, 75.5 µM (inactive); in the assay on LXFL 529, 87.9 µM (inactive). Also, the GI50 in the assay with SNB-78 and in the assay with XF498 was > 100 µM (inactive) each time.
On to `c1ccc(C2SCc3nc4ccccc4n32)cc1` (stereo not given), for which the GI50 was 49.5 µM (inactive) with DLD-1; 19 µM (inactive) in the assay with DMS-114; 33.7 µM (inactive) in the assay on DMS-273; 4.26 µM (inactive) in the assay on HOP-18; 47.6 µM (inactive) with KM-20L2; 95.5 µM (inactive) in the assay with SNB-78. Further, the GI50 in the assay with XF498 was 20.7 µM (inactive).
Turning to `COc1ccc(/C=C2\CCC(CN3CCOCC3)C2=O)cc1` (stereo not given), the GI50 in the assay on DLD-1 is 2.79 µM (inactive); in the assay on DMS-114 it was 2.72 µM (inactive); in the assay with HOP-18 it was 5.78 µM (inactive); in the assay with KM-20L2, 6.3 µM (inactive); with LXFL 529, 1.59 µM (inactive); in the assay with RXF 631, 6.52 µM (inactive). Moreover, the GI50 in the assay on SNB-78 was 4.86 µM (inactive); in the assay with XF498, 3.56 µM (inactive).
On to `O=C1C=C(N2CCCC2)C=C(N2CCCC2)C1`, for which the GI50 with DLD-1 is > 100 µM (inactive); in the assay on DMS-114, 79.6 µM (inactive); with DMS-273, > 100 µM (inactive); in the assay with HOP-18 it was > 100 µM (inactive); in the assay with KM-20L2, > 100 µM (inactive); in the assay with LXFL 529, > 100 µM (inactive). Further, the GI50 in the assay with SNB-78 and with XF498 was > 100 µM (inactive) throughout.
`N#CCCN(CCC#N)c1ccc(/C=C(/NC(=O)c2cc([N+](=O)[O-])ccc2Cl)C(=O)NN)cc1`: the GI50 is > 100 µM (inactive) with DLD-1; > 100 µM (inactive) in the assay on DMS-273; > 100 µM (inactive) in the assay with HOP-18; > 100 µM (inactive) in the assay on KM-20L2; 54 µM (inactive) in the assay with LXFL 529; > 100 µM (inactive) in the assay on SNB-78.
With `Cc1cccc(NC2=NC(=O)C(CC(=O)Nc3cccc(C)c3C)S2)c1` (stereo not given), the GI50 was > 100 µM (inactive) in the assay with DLD-1; 63.5 µM (inactive) in the assay on DMS-114; > 100 µM (inactive) in the assay with KM-20L2; > 100 µM (inactive) in the assay on LXFL 529; > 100 µM (inactive) in the assay with SNB-78; > 100 µM (inactive) with XF498.
As for `Nc1ccc2ncc(Nc3ccc(F)cc3)nc2c1`, the GI50 is > 100 µM (inactive) in the assay with DLD-1; 85.3 µM (inactive) in the assay with DMS-114; > 100 µM (inactive) with DMS-273; > 100 µM (inactive) in the assay on SNB-78; > 100 µM (inactive) in the assay on XF498.
On to `Clc1ccc(-c2c(C3=NCCN3)nnn2-c2ccccc2)cc1`, for which the GI50 in the assay with DLD-1 was > 100 µM (inactive); with DMS-114, > 100 µM (inactive); in the assay with DMS-273 it was > 100 µM (inactive); in the assay with HOP-18, > 100 µM (inactive); in the assay with KM-20L2, 85.3 µM (inactive); with LXFL 529 it was > 100 µM (inactive). Besides, the GI50 in the assay on SNB-78 and in the assay with XF498 was > 100 µM (inactive) in each case.
With `C=C1C(=O)OC2/C=C(CO)/C=C\C3OC3(C)CC(OC(=O)/C(C)=C/COC(C)=O)C12` (stereo not given), the GI50 in the assay with DLD-1 is 0.773 µM (active); in the assay on DMS-114, 4.35 µM (inactive); with DMS-273, 1.97 µM (inactive); with HOP-18 it was 9.38 µM (inactive); with KM-20L2, 4.7 µM (inactive); in the assay with LXFL 529 it was 1.58 µM (inactive). In addition, the GI50 in the assay on RXF 631 was 2.74 µM (inactive); in the assay with SNB-78, 4.08 µM (inactive); in the assay on XF498 it was 2.47 µM (inactive).
For the compound `NC(=O)C12CC3CC(CC(F)(C3)C1)C2`, the GI50 in the assay on DLD-1, with DMS-114, in the assay with DMS-273, in the assay on KM-20L2, with LXFL 529 and in the assay on SNB-78 was > 100 µM (inactive) each time. In addition, the GI50 with XF498 was > 100 µM (inactive).
Consider `C=CCC1(CN(C)C)CC/C(=C\c2ccc(OC)cc2)C1=O` (stereo not given), for which the GI50 with DLD-1 is 34.2 µM (inactive); in the assay on DMS-114, 37.7 µM (inactive); in the assay with DMS-273, > 100 µM (inactive); with HOP-18, > 100 µM (inactive); in the assay on KM-20L2, 46.2 µM (inactive); in the assay with LXFL 529 it was 47.2 µM (inactive). The GI50 is 25 µM (inactive) with RXF 631 and > 100 µM (inactive) with SNB-78.
Regarding `CC#COS(=O)(=O)c1ccc(C)cc1`, the GI50 in the assay with DLD-1 is 30.8 µM (inactive); with DMS-114, 32.7 µM (inactive); with KM-20L2, 46.5 µM (inactive); with LXFL 529, 41 µM (inactive); in the assay with SNB-78 it was 63.5 µM (inactive).
`Cc1ccc(S(=O)(=O)C2=c3nc4ccccc4cc3=C3C(=O)c4ccccc4C(=O)C32)cc1` (stereo not given): the GI50 with DLD-1, in the assay with DMS-114, in the assay with DMS-273, with KM-20L2, in the assay on LXFL 529 and in the assay with XF498 was > 100 µM (inactive) in each case.
As to `CC(=O)OCC1OC(n2c(=S)n(-c3ccccc3)c(=O)c3cc(Br)ccc32)C(OC(C)=O)C1OC(C)=O` (stereo not given), the GI50 with DLD-1 was > 100 µM (inactive); with DMS-114, 99.8 µM (inactive); in the assay with DMS-273, > 100 µM (inactive); in the assay on HOP-18, > 100 µM (inactive); in the assay with KM-20L2 it was > 100 µM (inactive); in the assay on LXFL 529, 65.3 µM (inactive). Besides, the GI50 in the assay with SNB-78 was > 100 µM (inactive); in the assay with XF498 it was 71.8 µM (inactive).
`Cc1ccc(S(=O)(=O)N2CCC2c2ccccc2)cc1` (stereo not given): the GI50 with DMS-114 was 48.1 µM (inactive); in the assay with DMS-273, 91 µM (inactive); with HOP-18 it was 80 µM (inactive); in the assay on KM-20L2 it was > 100 µM (inactive); in the assay with SNB-78, > 100 µM (inactive); in the assay with XF498, 74 µM (inactive).
Consider `C=CCC1C(=O)C(C(=O)OC)N2CCc3c([nH]c4ccccc34)C12` (stereo not given), for which the GI50 with DLD-1, in the assay on DMS-114, in the assay with KM-20L2 and in the assay with LXFL 529 was > 100 µM (inactive) each time.
For the compound `O=c1c2ccccc2n2cnc3ccc(NCCNCCO)c1c32`, the GI50 is 2.59 µM (inactive) in the assay on DLD-1; 2.04 µM (inactive) in the assay with DMS-114; 2.4 µM (inactive) in the assay with HOP-18; 1.41 µM (inactive) in the assay with KM-20L2; 2.3 µM (inactive) in the assay with LXFL 529; 1.26 µM (inactive) in the assay with RXF 631. In addition, the GI50 with SNB-78 is 2.06 µM (inactive).
For `CC(=O)Oc1c(-c2ccccc2)[nH]c2cc([N+](=O)[O-])c(/C(Cl)=C/c3ccccc3)cc12`, the GI50 in the assay with DLD-1 is 3.71 µM (inactive); with DMS-114 it was 2.17 µM (inactive); with KM-20L2 it was 3.41 µM (inactive); with LXFL 529, 3.9 µM (inactive); in the assay with SNB-78, 3.85 µM (inactive); with XF498, 4.36 µM (inactive).
In the case of `O=C(CC/C(CC(=O)c1ccc(Cl)cc1)=N/O)Nc1ccc(Cl)c(Cl)c1`, the GI50 in the assay with DLD-1 is > 100 µM (inactive); in the assay with DMS-114, 65.3 µM (inactive); in the assay on DMS-273 it was > 100 µM (inactive); in the assay with HOP-18 it was > 100 µM (inactive); in the assay on KM-20L2, 36.2 µM (inactive); in the assay on LXFL 529, 80.7 µM (inactive). Further, the GI50 with RXF 631, in the assay on SNB-78 and in the assay on XF498 was > 100 µM (inactive) throughout.
For the compound `Nc1nc(N)c(CCCCc2ccccc2)c(/C=C/c2ccc([N+](=O)[O-])cc2)n1`, the GI50 with DLD-1 was 2.39 µM (inactive); in the assay with DMS-114, 1.45 µM (inactive); with KM-20L2, 2.49 µM (inactive); in the assay with LXFL 529, 3.21 µM (inactive); in the assay on SNB-78, 2.59 µM (inactive); in the assay on XF498 it was 1.84 µM (inactive).
`COc1cc2ccnc(C#N)c2cc1OCc1ccccc1`: the GI50 in the assay on DLD-1 is > 100 µM (inactive); in the assay with HOP-18, > 100 µM (inactive); in the assay on KM-20L2, > 100 µM (inactive); with LXFL 529, > 100 µM (inactive); in the assay with SNB-78, > 100 µM (inactive); in the assay on XF498, 53.6 µM (inactive).
As to `CC1=C2CC[C@@]3(C)C(=CCC3O)C2(C)CCC1=O` (stereo not given in full), the GI50 with DLD-1, in the assay with DMS-114, in the assay on DMS-273, with HOP-18, in the assay on KM-20L2 and with LXFL 529 was > 100 µM (inactive) in each case. The GI50 in the assay with RXF 631 and in the assay on SNB-78 was > 100 µM (inactive) each time.
`CC1CC2CC(=O)CC3(C1)C2CCCN3CCCO` (stereo not given): the GI50 with DLD-1, with DMS-114, with DMS-273, in the assay with HOP-18, in the assay on LXFL 529 and in the assay on RXF 631 was > 100 µM (inactive) each time. The GI50 in the assay with SNB-78 and with XF498 was > 100 µM (inactive) each time.
